Molecular target: T1, hGPR119 (Homo sapiens, UniProt Q8TDV5)
T1 construct: expressed in transfected cells; host or cells: Flp-In T-REx 293 (tetracycline-inducible)
T1 sequence (Q8TDV5 1-335): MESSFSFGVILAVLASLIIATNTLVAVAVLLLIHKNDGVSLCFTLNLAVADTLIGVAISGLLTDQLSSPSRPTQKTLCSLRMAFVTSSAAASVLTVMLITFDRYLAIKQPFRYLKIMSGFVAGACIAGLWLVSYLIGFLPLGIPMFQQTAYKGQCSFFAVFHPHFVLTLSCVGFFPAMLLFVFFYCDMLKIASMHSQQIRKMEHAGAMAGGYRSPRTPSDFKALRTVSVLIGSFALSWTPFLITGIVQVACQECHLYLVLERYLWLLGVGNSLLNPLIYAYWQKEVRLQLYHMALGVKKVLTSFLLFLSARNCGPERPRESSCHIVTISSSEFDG
Assay: Human Tet-inducible cAMP assay
Format: cell-based
Details: Flp-In T-REx 293 tetracycline inducible cells expressing GPR119; cAMP by HITHUNTER kit; 1 hour incubation
Procedure: The in vitro modulation of recombinant human GPR119 was determined as follows.
Human Tet-Inducible cAMP Assay
Cell lines expressing GPR119 are generated using the Flp-In T-REx 293 tetracycline inducible gene expression system are cultured in culture medium comprising the following components: DMEM#11965, 10% FBS, 2 mM L-glutamine, 200 ug/ml Hygromycin B, and 15 ug/ml blasticidin.
For cAMP assays, cells are plated on 96 well plates (e.g., BD Falcon: REF 353948, black side, clear bottom, TC surface) at a density of about 4.5×10^4 cells per well in growth medium containing 1.0 ug/ml tetracycline (1.0 mg/ml stock). The cells are then incubated for 48 hours at 37° C.
Following the incubation, the growth medium is removed from the wells and the wells rinsed (once) with the assay buffer included in the HITHUNTER® cAMP kit (100 μl/well). Following the wash, 20 μl of assay buffer is added to each well, followed by addition of 10 μl of a 3× concentration compound working solution. The solution is then mixed. The final concentration range of compound is from about 10^−5M to about 10^−11 M. The reagents are then incubated at 37° C. at 5% CO2 for 1 hour.
The manufacturer's protocol may be followed for cAMP determination. The HITHUNTER® cAMP kit protocol is outlined for the HIT-T15 cAMP assays described above.
Compounds of the present invention were tested in the Human Tet-inducible cAMP assay described immediately above and the results shown in Table 1 below were obtained.

| Compound | EC50 |
| --- | --- |
| COC(=O)c1nn(-c2ccc(S(C)(=O)=O)cc2)c(=O)cc1OC1CCN(C(=O)OC(C)(C)C)CC1 [Example 18, Methyl 4-(1-(tert-butoxycarbonyl)piperidin-4-yloxy)-1-(4-(methylsulfonyl)phenyl)-6-oxo-1,6-dihydropyridazine-3-carboxylate] | 4010 nM |
| CC(C)(C)OC(=O)N1CCC(Oc2cc(=O)n(-c3ccc(S(C)(=O)=O)cc3)nc2C#N)CC1 [Example 31, tert-Butyl 4-(3-cyano-1-(4-(methylsulfonyl)phenyl)-6-oxo-1,6-dihydropyridazin-4-yloxy)piperidine-1-carboxylate] | 83 nM |
| CC(C)(C)OC(=O)N1CCC(Oc2cc(=O)n(-c3ccc(C#N)c(F)c3)nc2C#N)CC1 [Example 34, tert-Butyl 4-(3-cyano-1-(4-cyano-3-fluorophenyl)-6-oxo-1,6-dihydropyridazin-4-yloxy)piperidine-1-carboxylate] | 3 nM |
| CCCc1cnc(N2CCC(Oc3cc(=O)n(-c4ccc(C#N)c(F)c4)nc3C#N)CC2)nc1 [Example 38, 1-(4-Cyano-3-fluorophenyl)-6-oxo-4-(1-(5-propylpyrimidin-2-yl)piperidin-4-yloxy)-1,6-dihydropyridazine-3-carbonitrile] | 8 nM |
| COC(=O)c1nn(-c2ccc(C#N)c(F)c2)c(=O)cc1OC1CCN(c2ncc(Br)cn2)CC1 [Example 42, Methyl 4-(1-(5-bromopyrimidin-2-yl)piperidin-4-yloxy)-1-(4-cyano-3-fluorophenyl)-6-oxo-1,6-dihydropyridazine-3-carboxylate] | 107 nM |

Second part, the compound after the results:

| EC50 | Compound |
| --- | --- |
| 4600 nM | CC(=O)c1cnc(N2CCC(Oc3cnn(-c4ccc(S(C)(=O)=O)cc4)c(=O)c3)CC2)nc1 [Example 11, 5-(1-(5-Acetylpyrimidin-2-yl)piperidin-4-yloxy)-2-(4-(methylsulfonyl)phenyl)pyridazin-3(2H)-one] |
| 3390 nM | CC(C)(C)OC(=O)N1CCC(Oc2cc(=O)n(-c3ccc(Cl)c(Cl)c3)nc2C(N)=O)CC1 [Example 16, tert-Butyl 4-(3-carbamoyl-1-(3,4-dichlorophenyl)-6-oxo-1,6-dihydropyridazin-4-yloxy)piperidine-1-carboxylate] |
| 5 nM | N#Cc1nn(-c2ccc(Cl)c(Cl)c2)c(=O)cc1OC1CCN(c2ncc(C(F)(F)F)cn2)CC1 [Example 26, 1-(3,4-Dichlorophenyl)-6-oxo-4-(1-(5-(trifluoromethyl)pyrimidin-2-yl)piperidin-4-yloxy)-1,6-dihydropyridazine-3-carbonitrile] |
| 95 nM | CC(C)(C)OC(=O)N1CCC(Oc2cc(=O)n(-c3ccc(Br)c(F)c3)nc2C#N)CC1 [Example 45, tert-Butyl 4-(1-(4-bromo-3-fluorophenyl)-3-cyano-6-oxo-1,6-dihydropyridazin-4-yloxy)piperidine-1-carboxylate] |
